In ChEMBL document CHEMBL1770103, “Synthesis and biological evaluation of dibenz[b,f][1,5]oxazocine derivatives for agonist activity at κ-opioid receptor” (Eur J Med Chem, 2011):
Activity calls are given as the source filed them. The calls are words filed in the database; no cut-off is given here.

Experiments:
[1] = molecular target: Kappa-type opioid receptor (Mus musculus) (UniProt P33534); test: Displacement of [125I]dynorphin from kappa opioid receptor in BALB/c mouse brain membrane at 5 uM by liquid scintillation counting relative to control; format: cell membranes
[2] = molecular target: Kappa-type opioid receptor (Rattus norvegicus) (UniProt P34975); test: Agonist activity at kappa opioid receptor in rat C6 cells assessed as induction of ERK1/2 phosphorylation at 40 uM after 10 min by Western blot analysis in presence of KOP antagonist norBNI; format: functional, cell-based
[3] = molecular target: Mu-type opioid receptor (Mus musculus) (UniProt P42866); conditions: BALB/c, Brain, Membrane, at 5 µM
Description: Displacement of [3H]DAMGO from mu opioid receptor in BALB/c mouse brain membrane at 5 uM by liquid scintillation counting relative to control

[4] = molecular target: Kappa-type opioid receptor (Mus musculus, UniProt P33534); test: Displacement of [125I]dynorphin from kappa opioid receptor in BALB/c mouse brain membrane by liquid scintillation counting; format: cell membranes
Chain of Kappa-type opioid receptor (P33534 whole entry): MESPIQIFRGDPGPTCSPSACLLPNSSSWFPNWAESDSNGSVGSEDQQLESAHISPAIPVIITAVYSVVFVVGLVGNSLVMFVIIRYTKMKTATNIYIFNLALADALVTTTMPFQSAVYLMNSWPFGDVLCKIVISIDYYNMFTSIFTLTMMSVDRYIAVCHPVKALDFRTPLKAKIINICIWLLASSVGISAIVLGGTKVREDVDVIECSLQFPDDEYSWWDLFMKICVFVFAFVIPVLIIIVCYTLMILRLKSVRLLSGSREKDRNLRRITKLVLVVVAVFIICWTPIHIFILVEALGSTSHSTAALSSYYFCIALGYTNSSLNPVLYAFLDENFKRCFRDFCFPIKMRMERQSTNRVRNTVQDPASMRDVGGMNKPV

Chain of Mu-type opioid receptor (Mus musculus) (P42866 whole entry): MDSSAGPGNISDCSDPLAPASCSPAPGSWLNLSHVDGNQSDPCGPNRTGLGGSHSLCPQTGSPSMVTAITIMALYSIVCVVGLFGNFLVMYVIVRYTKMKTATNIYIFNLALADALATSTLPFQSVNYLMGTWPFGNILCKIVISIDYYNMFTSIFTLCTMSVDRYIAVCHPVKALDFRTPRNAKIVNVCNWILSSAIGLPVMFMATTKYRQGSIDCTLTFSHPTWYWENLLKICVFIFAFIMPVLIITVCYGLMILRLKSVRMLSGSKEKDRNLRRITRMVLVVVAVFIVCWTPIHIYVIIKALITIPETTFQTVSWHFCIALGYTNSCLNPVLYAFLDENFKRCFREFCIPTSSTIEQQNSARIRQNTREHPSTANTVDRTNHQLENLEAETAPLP
Chain of Kappa-type opioid receptor (Mus musculus) (P33534 whole entry): as the sequence (P33534 whole entry) above
Chain of Kappa-type opioid receptor (Rattus norvegicus) (P34975 whole entry): as the sequence (P33534 whole entry) above, with D11E, S17A, S51P, A308V counted along it

| Compound | residual activity [1] [%] | Activity [2] | residual activity [3] [%] | IC50 [4] [µM] |
| --- | --- | --- | --- | --- |
| COc1ccc2c(c1)COc1ccccc1CN2c1ccccc1 | 29 | inactive | 99 | 2.17 |
| COc1ccccc1N1Cc2cccc(OC)c2OCc2ccccc21 | 119 |  | 89 |  |
| c1ccc(N2Cc3ccccc3OCc3ccccc32)cc1 | 87 |  | 80 |  |
| COc1ccc(N2Cc3cccc(OC)c3OCc3cc4c(cc32)OCO4)cc1 | 101 |  | 138 |  |
| COc1cccc2c1OCc1cc3c(cc1N(c1ccccc1)C2)OCO3 | 101 |  | 78 |  |
| COc1ccc(N2Cc3cccc(OC)c3OCc3ccccc32)cc1 | 81 |  | 90 |  |
| COc1ccc(N2Cc3ccccc3OCc3ccccc32)cc1 | 81 |  | 86 |  |
